Legend:
[1] = tested on: HEK-N/F cells; experiment: Protection of cells from oxidative damage induced by t-butylhydroperoxide; assay type: cell-based, human; settings: 1.5 mM t-butylhydroperoxide 3 hours
Experimental: t-butylhydroperoxide is metabolized into a free radical intermediate as it comes in a cell, so that it causes lipid peroxidation, resulting in cell damage. This phenomenon is similar to that caused by oxidataive stress accumulated in cells and tissues. […] HEK-N/F, an epidermal cell line of a newborn baby, was treated with 1.5 mM of t-butylhydroxyperoxide for 3 hours.

[2] = tested on: HEK-N/F cells; experiment: Cell protection from UV irradiation (DNA damage, ethidium homodimer fluorescence); assay type: cell-based, human; settings: 35 mJ/cm^2 UVB, Et2 fluorescence (DNA damage)
Experimental: UV irradiation induces DNA damage and DNA-protein connection by increasing active oxygen in cells. When HEK-N/F cells were irradiated by 35 mJ/cm^2 of UVB, DNA chains in nucleus were cut. After uniting the broken chains to ethidium homodimer (Et2), a DNA chain intercalating fluorescent dye, extent of fluorescence was measured to quantify the amount of DNA damage. Particularly, HEK-N/F cells were cultured on serum-free KGM medium (Clonetics), which were inoculated into wells of a 24-well plate by 0.5−4×10^4 cells/2 cm^2. Then, the cells were cultured for 18 hours, after which a sample was treated thereto for 2 hours. […] The cells exposed on UV were further cultured for 1-7 hours, and then, […] ethidium homodimer (Et2, Millipore) was added. 30 minutes later, fluorescence was measured with Millipore microplate fluorometer Cytofluor 2350 (excitation: 485 nm, emission: 645 nm).

[3] = tested on: back skin of SKH-1 hairless mouse; experiment: Protection of skin tissues from UVB irradiation in hairless mice; assay type: in vivo
Experimental: 5-6 week old female hairless mice (SKH-hr 1) were raised for 14 days at 24±2° C. with 50±10% relative humidity and 12 hour day/night cycle. 30-60 minutes before the experiment, a sample was hyperdermically injected on 5 spots of the mice and the backs of the mice were irradiated by UVB. 5 mice per each group were put in a cage (20×15×5 cm) and UVB irradiation was performed using a UV lamp (HP-15M, 280-400 nm, max. 312 nm; Atto Co., Japan) at 15 cm distance by 15 kJ/m^2. After the completion of UV irradiation for 24 hours, back skin was cut and stored at −70° C. until peroxidation was measured.
UVB irradiation causes serious lipid peroxidation in skin tissues, so measurement of the peroxided lipid content might lead to the measurement of skin damages. Particularly, UVB was irradiated on the back skin of SKH-1 hairless mouse. 48 hours later, the back skin tissues were cut to measure lipid peroxidation by thiobarbituric acid (TBA) method. The back skin of the mouse was put in a 10×50 mM K-P buffer solution for homogenation.
Hydrogen peroxidation was also investigated. The frozen back skin section was put in 0.1 M Tris-HCl buffer solution (pH 7.5) containing 1 mg/ml of glucose and 1 mg/ml diaminobenzidine (DAB), which was cultured at 37° C. for 5-6 hours. After being washed with distilled water, the solution was stained with 2% methyl green for 60 minutes. Nucleus stained blue and DAB peroxidase (brown) were observed under a microscope.

[4] = tested on: HEK-N/F cells; experiment: Prolongation of life span of a cell; assay type: cell-based, human; settings: 3 μg/ml during culture
Experimental: HEK-N/F cells were obtained from foreskin of a newborn baby after its fibroblasts, another major component of skin, were treated with uridine bromide. Then, the cells were cultured in DMEM medium supplemented with 10 FBS. HEK-N/F cells were diluted consecutively at the ratio of 1:4 during the culture. Before being treated with samples, the cells were grown up to 3 PDL (population doubling level). During the culture, each sample was administered by […]. Medium was replaced every three days by fresh medium supplemented with a culture solution containing the equal concentration of the sample.

[5] = tested on: HEK-N/F cells; experiment: Telomere length / maximum PDL (Southern blot of TRFs); assay type: cell-based, human
Experimental: In the above Example 8, an extract of […] chinensis and active ingredients separated from the same were confirmed to have an effect of prolongation of life span of a cell. Thus, in this example, relation between the effect of prolongation of life span and the length of a telomere was investigated. Particularly, genomic DNA was extracted from each cell of different ages by using a nucleic acid extraction kit (Isoquick Nucleic Acid Extraction kit, ORCA Research Inc.), which was stored at 4° C. after being dissolved in Tris-EDTA solution (10 mM Tris-HCl, 1 mM EDTA, pH 8.0). 2 μl of 10×H buffer solution (TaKaRa), 2 μl of the extracted genomic DNA solution and distilled water were all mixed in a 1.5 ml tube, making final volume 19 μl. Then, 1 μl at of restriction enzyme […]) was added thereto. […] Then, the gel was immersed in 0.25 N HCl, followed by shaking for 15 minutes. The gel was washed twice with distilled water. This gel was dipped into denaturing solution (0.2 N NaOH, 0.6 M NaCl), followed by shaking for 25 minutes at room temperature. And then, the gel was washed three times with distilled water. On a blotting device filled with 6×SSC, nitrocellulose membrane (Optitran BA-S 85, Schleicher & Schuel), 3 mm filter paper, paper towel, glass plate and weight (2 kg) were loaded in that order, followed by blotting overnight. After the blotting was finished, membrane filter was soaked in 3×SSC, and then water was discarded smoothly. The positions of the wells on the membrane were marked. The membrane was placed between filter papers, followed by baking at 80° C. for overnight. […] After being dried, the membrane was covered with wrap and set in a cassette on which X-ray film (Scientific Imaging Film, Kodak) and intensifying screen were attached. Autoradiography was performed at -80° C. for overnight. Based on the developed film and the location of the membrane, the positions of the wells were marked by a magic pen. The density peak of TRFs was detected by a laser densitometer (UltroScan XL, Pharmacia) and its mobility was calculated.

## Oc1cc(O)cc(/C=C/c2ccc(O)c(O)c2)c1 [Chemical Formula 5, piceatannol]
[1]
  Cell survival rate (%): 84.7±6.9%
[1]; compound 50.0 µg/ml
  TBARS (pmol/mg protein): 520.2 ± 60.7 pmol/mg protein
[2]
  fluorescence lower than that of a control: 66.7%
[3]; treating amount 10 mg/kg + UVB irradiation
  TBARS (nmol/mg protein): 0.16 ± 0.08 nmol/mg protein
[3]; treating amount 30 mg/kg + UVB irradiation
  TBARS (nmol/mg protein): 0.07 ± 0.03 nmol/mg protein
[4]
  average life span of a cell: 76 days
  life span, times as long as that of a control: 2.1 times
[5]
  telomere shortening speed delayed, comparing to control: 2.1 times
[5]; control 14.1
  maximum PDL: 29.9
